Laboratory results taken from publication PMC8409965, “Three-component Castagnoli-Cushman reaction with ammonium acetate delivers 2-unsubstituted isoquinol-1-ones as potent inhibitors of poly(ADP-ribose) polymerase (PARP)” (Journal of Enzyme Inhibition and Medicinal Chemistry, 2021).
Read-outs that look alike come from different tables or passages of the source.

Columns and labels:
PARP2 [1] = target: T1, PARP2 (Homo sapiens, UniProt Q9UGN5); parameters: method as in PMID 34482781; conditions: values greater than 1.0 indicate selectivity towards PARP2; cited from earlier work
T1 construct: purchased BPS Bioscience (San Diego, CA)
T1 sequence (Q9UGN5 whole entry): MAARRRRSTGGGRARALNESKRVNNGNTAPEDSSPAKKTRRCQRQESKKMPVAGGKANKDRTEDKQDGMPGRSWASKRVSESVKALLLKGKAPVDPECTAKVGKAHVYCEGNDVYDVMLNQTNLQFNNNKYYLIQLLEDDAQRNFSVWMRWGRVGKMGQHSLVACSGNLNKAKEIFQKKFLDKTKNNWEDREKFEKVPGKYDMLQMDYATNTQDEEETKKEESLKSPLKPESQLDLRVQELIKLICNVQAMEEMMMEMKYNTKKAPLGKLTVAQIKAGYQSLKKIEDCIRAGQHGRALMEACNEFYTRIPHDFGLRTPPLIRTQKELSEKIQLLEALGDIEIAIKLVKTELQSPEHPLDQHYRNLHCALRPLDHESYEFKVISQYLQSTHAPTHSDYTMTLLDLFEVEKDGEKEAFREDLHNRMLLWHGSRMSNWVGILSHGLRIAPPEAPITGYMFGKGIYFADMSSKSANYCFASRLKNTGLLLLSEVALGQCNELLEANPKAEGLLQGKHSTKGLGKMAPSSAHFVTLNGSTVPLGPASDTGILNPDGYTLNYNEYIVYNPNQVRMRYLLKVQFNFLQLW

PARP1 [2] = target: T2, PARP1 (Homo sapiens, UniProt P09874); assay: PARP1 colorimetric activity assay kit (BPS Bioscience); type: biochemical; conditions: dose-response, mean ± SD, n = 3
T2 construct: purchased BPS Bioscience (San Diego, CA)
T2 sequence (P09874 whole entry): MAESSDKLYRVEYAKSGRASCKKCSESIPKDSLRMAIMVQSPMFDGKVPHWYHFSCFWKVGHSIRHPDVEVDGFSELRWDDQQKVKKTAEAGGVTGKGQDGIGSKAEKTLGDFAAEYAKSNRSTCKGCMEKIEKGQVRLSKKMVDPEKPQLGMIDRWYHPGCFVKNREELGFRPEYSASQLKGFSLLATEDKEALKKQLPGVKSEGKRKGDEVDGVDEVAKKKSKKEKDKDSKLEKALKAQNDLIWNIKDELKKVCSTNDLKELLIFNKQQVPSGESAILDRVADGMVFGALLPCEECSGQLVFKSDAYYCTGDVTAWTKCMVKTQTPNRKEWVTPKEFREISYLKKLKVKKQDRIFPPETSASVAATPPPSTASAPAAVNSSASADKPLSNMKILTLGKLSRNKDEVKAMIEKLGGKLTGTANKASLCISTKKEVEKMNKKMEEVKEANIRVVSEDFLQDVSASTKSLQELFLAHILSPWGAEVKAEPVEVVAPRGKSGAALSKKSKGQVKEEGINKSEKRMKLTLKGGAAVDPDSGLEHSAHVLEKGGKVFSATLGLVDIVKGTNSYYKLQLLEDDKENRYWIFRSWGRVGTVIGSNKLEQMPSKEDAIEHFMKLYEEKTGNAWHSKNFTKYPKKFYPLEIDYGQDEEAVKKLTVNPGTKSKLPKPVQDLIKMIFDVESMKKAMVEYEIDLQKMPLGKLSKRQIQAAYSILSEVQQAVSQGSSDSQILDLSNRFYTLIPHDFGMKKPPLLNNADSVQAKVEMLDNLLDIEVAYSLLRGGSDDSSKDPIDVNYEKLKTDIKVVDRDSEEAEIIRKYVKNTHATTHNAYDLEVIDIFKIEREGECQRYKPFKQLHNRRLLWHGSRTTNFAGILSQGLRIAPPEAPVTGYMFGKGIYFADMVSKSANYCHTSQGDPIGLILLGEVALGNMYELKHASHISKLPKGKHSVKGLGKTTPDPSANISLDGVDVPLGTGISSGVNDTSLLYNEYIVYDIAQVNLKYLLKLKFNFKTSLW

PARP2 [3] = target: T1, PARP2; assay: PARP2 colorimetric activity assay kit (BPS Bioscience); type: biochemical; conditions: for IC50: dose-response, mean ± SD, n = 3; for SI (selectivity index) IC50(PARP1)/IC50(PARP2): values greater than 1.0 indicate selectivity towards PARP2
PARP1 [4] = target: T2, PARP1; assay: PARP1 colorimetric activity assay kit (BPS Bioscience); type: biochemical; conditions: 1 µM concentration of the inhibitor, mean ± SD, n = 3
Protocol: The initial screening was performed against PARP1 at 1 µM concentration of each compound, in triplicate (n = 3) measurements.

[5] = Stability in the presence of human liver microsomes; type: in vitro ADME
[6] = Stability in the presence of hepatic S9 fraction; type: in vitro ADME
[7] = Stability in human plasma; type: in vitro ADME; conditions: after incubation (4 h) with human plasma
Plasma protein binding = type: in vitro ADME
[8] = Solubility in pH 7.4 phosphate buffer; type: physicochemical; conditions: aqueous buffer; pH 7.4 0.01 M phosphate buffer solution

Structure (SMILES) | IC50 (PARP1 [2]) [nM] | IC50 (PARP2 [3]) [nM] | SI (selectivity index) IC50(PARP1)/IC50(PARP2) (PARP2 [3]) | inhibition at 1 µM (PARP1 [4]) [%] | also measured
O=C1NCC(C(=O)N2CCC(N3CCCCC3)CC2)c2ccccc21 (stereo not shown) [Compound 1a] |  |  |  |  | SI (selectivity index) IC50(PARP1)/IC50(PARP2) (PARP2 [1]): 2.23
O=C1N[C@H](c2ccccc2)[C@@H](C(=O)N2CCC(N3CCCCC3)CC2)c2ccccc21 [Compound 2a] | 87.9 ± 10.2 | 69.5 ± 12.8 | 1.26 |  | 
O=C1N[C@H](c2ccc(F)cc2)[C@@H](C(=O)N2CCC(N3CCCCC3)CC2)c2ccccc21 [Compound 2b] | 55.4 ± 8.8 | 39.9 ± 7.3 | 1.39 |  | 
CC[C@H]1NC(=O)c2ccccc2[C@@H]1C(=O)N1CCC(N2CCCCC2)CC1 [Compound 2c] | 44.6 ± 5.6 | 11 ± 2.2 | 4.05 |  | 
CC(C)[C@H]1NC(=O)c2ccccc2[C@@H]1C(=O)N1CCC(N2CCCCC2)CC1 [Compound 2d] | 160 ± 18.6 |  |  |  | 
O=C1N[C@H](C2CC2)[C@@H](C(=O)N2CCC(N3CCCCC3)CC2)c2ccccc21 [Compound 2e] | 26.4 ± 4.1 | 18.3 ± 4.5 | 1.44 |  | 
CC(C)(C)[C@H]1NC(=O)c2ccccc2[C@@H]1C(=O)N1CCC(N2CCCCC2)CC1 [Compound 2f] |  |  |  | 24.1 ± 6 | 
CC(C)C[C@H]1NC(=O)c2ccccc2[C@@H]1C(=O)N1CCC(N2CCCCC2)CC1 [Compound 2g] | 87 ± 8.3 | 105 ± 20.8 | 0.83 |  | 
CC1(C)NC(=O)c2ccccc2[C@@H]1C(=O)N1CCC(N2CCCCC2)CC1 [Compound 2h] |  |  |  | 4 ± 7.4 | 
O=C1NC2(CCCCC2)[C@@H](C(=O)N2CCC(N3CCCCC3)CC2)c2ccccc21 [Compound 2i] |  |  |  | 12.1 ± 7.2 | 
O=C1NC2(CCOCC2)[C@@H](C(=O)N2CCC(N3CCCCC3)CC2)c2ccccc21 [Compound 2j] |  |  |  | 5.1 ± 6.6 | 
O=C1NC2(CCCC2)[C@@H](C(=O)N2CCC(N3CCCCC3)CC2)c2ccccc21 [Compound 2k] |  |  |  | 10.6 ± 9.7 | 
O=C1N[C@H](C2CCCC2)[C@@H](C(=O)N2CCC(N3CCCCC3)CC2)c2ccccc21 [Compound 2l] | > 500 | > 500 |  |  | 
C[C@H]1NC(=O)c2ccccc2[C@@H]1C(=O)N1CCC(N2CCCCC2)CC1 [Compound 2m] | 95.7 ± 17.7 | 29.2 ± 3.4 | 3.28 |  | 
O=C1NC(C2CC2)C(C(=O)N2CCC(N3CCCCC3)CC2)c2ccc(F)cc21 (stereo not shown) [Compound 6, 4-([1,4′-bipiperidine]-1′-carbonyl)-3-cyclopropyl-7-fluoro-3,4-dihydroisoquinolin-1(2H)-one] | 22 ± 3.2 | 4.3 ± 0.5 | 5.1 |  | Stability HLM [5]: 3.8 µL/min/mg; Stability S9 [6]: 0.1 µL/min/mg; Stability Plasma (% compound remaining) [7]: 100%; PPB (plasma protein binding) (Plasma protein binding): 71.0 % bound; solubility [8]: > 100 µM
O=C(c1cc(Cc2n[nH]c(=O)c3ccccc23)ccc1F)N1CCN(C(=O)C2CC2)CC1 [Olaparib, reference compound] |  |  |  |  | Stability HLM [5]: 15 µL/min/mg; Stability S9 [6]: 1.1 µL/min/mg; Stability Plasma (% compound remaining) [7]: 100%; PPB (plasma protein binding) (Plasma protein binding): 90.2 % bound; solubility [8]: > 100 µM
